In series [1] the test system is Human gammaherpesvirus 4. The series is described as follows: Antiviral activity against EBV infected in TPA and sodium butyrate-induced P3HR1 cells assessed as inhibition on EBV lytic replication at 20 uM incubated for 48 hrs by SYBR green dye based real-time PCR method. Format: functional. The note with it: human gammaherpesvirus 4, P3HR-1, 48 h.
The test system of series [2] is Human gammaherpesvirus 4. Nature of the series: Antiviral activity against EBV infected in TPA and sodium butyrate-induced P3HR1 cells assessed as inhibition on EBV lytic replication incubated for 48 hrs by SYBR green dye based real-time PCR method. Format: functional, organism-based. Conditions: human gammaherpesvirus 4, P3HR-1, 48 h.
Series [3] can be described thus: Cytotoxicity against human P3HR1 cells assessed as reduction in cell viability incubated for 48 hrs by trypan blue dye exclusion assay. Format: cell-based, P3HR-1.
The nature of series [4]: Selectivity index, ratio of CC50 for human P3HR1 cells to EC50 for EBV infected in TPA and sodium butyrate-induced P3HR1 cells. The arrangement: species or system P3HR-1.

Molecules are shown by their SMILES.

Take `CC(=O)O[C@H]1[C@H](OC(=O)c2cccnc2)[C@@]2(C)C(C)=CCC[C@@H]2[C@@](C)(/C=C/C2=CC(=O)OC2)[C@@]1(C)O`: the inhibition at 20 µM in series [1] is < 50%.

Turning to `CC1=CCC[C@H]2[C@@]1(C)[C@@H](OC(=O)c1ccccc1)[C@H](OC(=O)C(C)C)[C@](C)(O)[C@]2(C)/C=C/C1=CC(=O)OC1`, the concentration for a half-maximal effect (EC50) in series [2] was 9.2 µM. Further, the CC50 at 48 h in series [3] is 49.7 µM. Further, the “Ratio CC50/EC50” value in series [4] is on record as 5.4. In addition, the inhibition at 20 µM in series [1] was > 50%.

For the compound `CC(=O)OC(C(=O)O[C@H]1[C@H](OC(=O)c2ccccc2)[C@@]2(C)C(C)=CCC[C@@H]2[C@@](C)(/C=C/C2=CC(=O)OC2)[C@@]1(C)O)C(C)C` (some centres not stated), the EC50 in series [2] came to 3.2 µM. Besides, the CC50 at 48 h in series [3] was 148 µM. Besides, in series [4], the “Ratio CC50/EC50” value is 46.1. Further, the inhibition at 20 µM in series [1] was > 50%.

Turning to `CC(=O)O[C@@H](CC1=CC(=O)OC1)[C@]1(C)[C@H]2CCC=C(C)[C@]2(C)[C@@H](OC(=O)c2ccccc2)[C@H](O)[C@]1(C)O`, in series [2], the EC50 is 8.7 µM. In addition, the CC50 at 48 h in series [3] worked out at 37.8 µM. Also, in series [4], the “Ratio CC50/EC50” value was 4.3. In addition, the inhibition at 20 µM in series [1] was > 50%.

As for `CC1=CCC[C@H]2[C@@]1(C)[C@@H](OC(=O)c1ccccc1)[C@H](O)[C@]1(C)O[C@]3(COC(=O)C3)C[C@H](OC(=O)c3ccccc3)[C@]21C`, the EC50 in series [2] came out at 18.3 µM. Moreover, the CC50 at 48 h in series [3] was 66.5 µM. The “Ratio CC50/EC50” value in series [4] is given as 3.6. The inhibition at 20 µM in series [1] is > 50%.

Take `CC1=CCC[C@H]2[C@@]1(C)[C@@H](OC(=O)c1ccccc1)[C@H](O)[C@]1(C)O[C@]3(COC(=O)[C@@H]3O)C[C@H](OC(=O)c3ccccc3)[C@]21C`: the concentration for a half-maximal effect (EC50) in series [2] was found to be 5.2 µM. In addition, the CC50 at 48 h in series [3] is 15.1 µM. Besides, in series [4], the “Ratio CC50/EC50” value is 2.9. The inhibition at 20 µM in series [1] is > 50%.

As for `CC1=CCC[C@H]2[C@@]1(C)[C@@H](OC(=O)c1ccccc1)[C@H](OC(=O)c1cccnc1)[C@](C)(O)[C@]2(C)/C=C/C1=CC(=O)OC1`, in series [2], the EC50 amounted to 23.6 µM. Besides, in series [3], the CC50 at 48 h was determined as 1440 µM. The “Ratio CC50/EC50” value in series [4] worked out at 61.1. The inhibition at 20 µM in series [1] was > 50%.

For the compound `CC1=CCC[C@H]2[C@@]1(C)[C@@H](OC(=O)c1ccccc1)[C@H](OC(=O)c1ccccc1)[C@](C)(O)[C@]2(C)/C=C/C1=CC(=O)OC1`, the EC50 in series [2] stood at 14.3 µM. For the same compound, the CC50 at 48 h in series [3] turned out to be 30 µM. Besides, the “Ratio CC50/EC50” value in series [4] came to 2.1. In series [1], the inhibition at 20 µM is > 50%.

As for `CC(=O)OC(C(=O)O[C@H]1[C@H](OC(=O)c2cccnc2)[C@@]2(C)C(C)=CCC[C@@H]2[C@@](C)(/C=C/C2=CC(=O)OC2)[C@@]1(C)O)C(C)C` (some centres not stated), the EC50 in series [2] came out at 18.7 µM. Moreover, the 50% cytotoxic concentration (CC50) at 48 h in series [3] was determined as 307 µM. Further, in series [4], the “Ratio CC50/EC50” value is 16.4. The inhibition at 20 µM in series [1] was > 50%.

Take `CC1=CCC[C@H]2[C@@]1(C)[C@@H](OC(=O)c1ccccc1)[C@H](O)[C@](C)(O)[C@]2(C)/C=C/C1=CC(=O)OC1`: in series [2], the EC50 came to 9.1 µM. Also, the CC50 at 48 h in series [3] is 68.3 µM. In addition, in series [4], the “Ratio CC50/EC50” value is reported as 7.5. Moreover, the inhibition at 20 µM in series [1] is > 50%.

Consider `CC(=O)O[C@H]1[C@H](OC(C)=O)[C@]2(C)O[C@]3(CC[C@]2(C)[C@H]2[C@H](OC(=O)c4ccccc4)CC=C(C)[C@]12C)COC(=O)C3`, for which the EC50 in series [2] stood at 12.9 µM. Besides, in series [3], the CC50 at 48 h amounted to 738 µM. Moreover, the “Ratio CC50/EC50” value in series [4] is 57.2. In addition, the inhibition at 20 µM in series [1] is > 50%.

Consider `CC(=O)O[C@H]1[C@H](OC(=O)c2cccnc2)[C@@]2(C)C(C)=CC[C@@H](OC(=O)c3cccnc3)[C@@H]2[C@@]2(C)CC[C@]3(COC(=O)C3)O[C@@]12C`, for which the EC50 in series [2] amounted to 16.4 µM. Further, the CC50 at 48 h in series [3] amounted to 1790 µM. In series [4], the “Ratio CC50/EC50” value is 109.2. For the same compound, in series [1], the inhibition at 20 µM is > 50%.

For the compound `C=CC(C)(C)c1cc2cc3c(cc2oc1=O)O[C@H](C(C)(C)OC(C)=O)C3`, the concentration for a half-maximal effect (EC50) in series [2] was 5.43 µM. Moreover, the CC50 at 48 h in series [3] was > 150 µM. The “Ratio CC50/EC50” value in series [4] is >39.6.

For `CC(=O)O[C@H]1[C@H](OC(=O)C(C)C)[C@](C)(O)[C@](C)(/C=C/C2=CC(=O)OC2)[C@H]2CCC=C(C)[C@]12C`, the inhibition at 20 µM in series [1] is < 50%.

With `CC1=CCC[C@H]2[C@@]1(C)[C@@H](OC(=O)c1cccnc1)[C@H](OC(=O)C(C)C)[C@](C)(O)[C@]2(C)/C=C/C1=CC(=O)OC1`, the inhibition at 20 µM in series [1] is < 50%.

Consider `CC(=O)O[C@H]1[C@H](OC(=O)c2ccccc2)[C@](C)(O)[C@](C)(/C=C/C2=CC(=O)OC2)[C@H]2CCC=C(C)[C@]12C`, for which, in series [1], the inhibition at 20 µM was < 50%.

Turning to `CC(=O)O[C@@H](CC1=CC(=O)OC1)[C@]1(C)[C@H]2CCC=C(C)[C@]2(C)[C@@H](OC(C)=O)[C@H](OC(=O)C(C)C)[C@]1(C)O`, the inhibition at 20 µM in series [1] is < 50%.

As for `CC(=O)O[C@@H](CC1=CC(=O)OC1)[C@]1(C)[C@H]2CCC=C(C)[C@]2(C)[C@@H](OC(=O)c2cccnc2)[C@H](OC(=O)C(C)C)[C@]1(C)O`, the inhibition at 20 µM in series [1] was < 50%.

On to `CC(=O)O[C@@H](CC1=CC(=O)OC1)[C@]1(C)[C@H]2CCC=C(C)[C@]2(C)[C@@H](OC(C)=O)[C@H](OC(C)=O)[C@]1(C)O`, for which the inhibition at 20 µM in series [1] is < 50%.

As for `CC(=O)O[C@@H](CC1=CC(=O)OC1)[C@]1(C)[C@H]2CCC=C(C)[C@]2(C)[C@@H](OC(=O)c2cccnc2)[C@H](OC(=O)c2cccnc2)[C@]1(C)O`, in series [1], the inhibition at 20 µM is < 50%.

In the case of `C=C1[C@@H](O)CC[C@H]2[C@@]1(C)[C@@H](OC(=O)c1ccccc1)[C@H](OC(=O)c1ccccc1)[C@](C)(O)[C@]2(C)/C=C/C1=CC(=O)OC1`, in series [1], the inhibition at 20 µM is < 50%.

Take `CC(=O)O[C@H]1[C@H](OC(C)=O)[C@](C)(O)[C@](C)(/C=C/C2=CC(=O)OC2)[C@H]2CCC=C(C)[C@]12C`: the inhibition at 20 µM in series [1] was < 50%.

As to `CC1=CCC[C@H]2[C@@]1(C)[C@@H](OC(=O)c1cccnc1)[C@H](OC(=O)c1cccnc1)[C@](C)(O)[C@]2(C)/C=C/C1=CC(=O)OC1`, in series [1], the inhibition at 20 µM is < 50%.

As for `CC(=O)O[C@H]1[C@H](OC(C)=O)[C@]2(C)O[C@]3(CC[C@]2(C)[C@H]2[C@H](OC(=O)c4cccnc4)CC=C(C)[C@]12C)COC(=O)C3`, the inhibition at 20 µM in series [1] was < 50%.

With `CC(=O)O[C@H]1[C@H](OC(=O)c2cccnc2)[C@@]2(C)C(C)=CCC[C@@H]2[C@@]2(C)[C@@H](OC(=O)c3cccnc3)C[C@@]3(COC(=O)C3)O[C@@]12C`, in series [1], the inhibition at 20 µM is < 50%.

On to `CC1=CCC[C@H]2[C@@]1(C)[C@@H](OC(=O)c1cccnc1)[C@H](OC(=O)c1cccnc1)[C@]1(C)O[C@]3(COC(=O)C3)C[C@H](OC(=O)c3cccnc3)[C@]21C`, for which, in series [1], the inhibition at 20 µM was < 50%.

On to `CC(=O)O[C@@H](CC1=CC(=O)OC1)[C@]1(C)[C@H]2CCC=C(C)[C@]2(C)[C@@H](OC(=O)c2cccnc2)[C@H](OC(=O)c2ccccc2)[C@]1(C)O` [BARBATELLARINES B], for which the inhibition at 20 µM in series [1] was < 50%.

The values are drawn from ChEMBL document CHEMBL3576767, “Neo-clerodane diterpenoids from Scutellaria barbata with activity against Epstein-Barr virus lytic replication” (J Nat Prod, 2015).
